Laboratory results reported in PubChem BioAssay AID2060895 (Molecular Pharmacology Branch, DTP, NCI, 2025).

Tested on: PDC 899932-113-R3-J6 complex spheroid viability
Experiment: Anticancer human tumor 899932-113-R3-J6-PDC patient-derived melanoma cell line growth inhibition [RAS]
Details: for IC50: curve of first compound; for viability, T/C: stronger effect = lower value; active = viability on the fitted dose curve at most 10% of control; inactive = the rest
Procedure, shortened: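 Tumour cells grown as complex spheroids with HUVEC endothelial cells and mesenchymal stem cells, treated with RAS pathway inhibitor combinations. Each agent spans half-log steps from near clinical Cmax, or 10 microM where Cmax is unknown.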

[1] = second compound 0.000949 µM, first compound 0.0316 µM
[2] = second compound 0.000949 µM, first compound 0.1 µM
[3] = second compound 0.000949 µM, first compound 0.316 µM
[4] = second compound 0.000949 µM, first compound 1 µM
[5] = second compound 0.000949 µM, first compound 3.16 µM
[6] = second compound 0.000949 µM, first compound 10 µM
[7] = second compound 0.003 µM, first compound 0.0316 µM
[8] = second compound 0.003 µM, first compound 0.1 µM
[9] = second compound 0.003 µM, first compound 0.316 µM
[10] = second compound 0.003 µM, first compound 1 µM
[11] = second compound 0.003 µM, first compound 3.16 µM
[12] = second compound 0.003 µM, first compound 10 µM
[13] = second compound 0.00949 µM, first compound 0.0316 µM
[14] = second compound 0.00949 µM, first compound 0.1 µM
[15] = second compound 0.00949 µM, first compound 0.316 µM
[16] = second compound 0.00949 µM, first compound 1 µM
[17] = second compound 0.00949 µM, first compound 3.16 µM
[18] = second compound 0.00949 µM, first compound 10 µM
[19] = second compound 0.03 µM, first compound 0.0316 µM
[20] = second compound 0.03 µM, first compound 0.1 µM
[21] = second compound 0.03 µM, first compound 0.316 µM
[22] = second compound 0.03 µM, first compound 1 µM
[23] = second compound 0.03 µM, first compound 3.16 µM
[24] = second compound 0.03 µM, first compound 10 µM
[25] = second compound 0.0949 µM, first compound 0.0316 µM
[26] = second compound 0.0949 µM, first compound 0.1 µM
[27] = second compound 0.0949 µM, first compound 0.316 µM
[28] = second compound 0.0949 µM, first compound 1 µM
[29] = second compound 0.0949 µM, first compound 3.16 µM
[30] = second compound 0.0949 µM, first compound 10 µM
[31] = second compound 0.3 µM, first compound 0.0316 µM
[32] = second compound 0.3 µM, first compound 0.1 µM
[33] = second compound 0.3 µM, first compound 0.316 µM
[34] = second compound 0.3 µM, first compound 1 µM
[35] = second compound 0.3 µM, first compound 3.16 µM
[36] = second compound 0.3 µM, first compound 10 µM
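For viability, T/C in this document: spheroids exposed to agents for seven days before readout; 100% = DMSO vehicle control wells.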

CC1(O)CCCC1n1c(=O)c(C(F)F)cc2cnc(NC3CCN(S(C)(=O)=O)CC3)nc21 (centres undefined) + CCn1c(-c2cc(N3CCN(C)CC3)cnc2C(C)OC)c2c3cc(ccc31)-c1csc(n1)CC(NC(=O)C1CC1C)C(=O)N1CCCC(N1)C(=O)OCC(C)(C)C2
inactive: viability, T/C [1] 77.9% | viability, T/C [2] 54.2% | viability, T/C [3] 49.5% | viability, T/C [4] 39.3% | viability, T/C [5] 37.1% | viability, T/C [6] 27.2% | viability, T/C [7] 41.5% | viability, T/C [8] 33% | viability, T/C [9] 27.5% | viability, T/C [10] 25.6% | viability, T/C [11] 26.6% | viability, T/C [12] 14.1%
< 31.6 nM: IC50 (second compound 0.003 µM) | IC50 (second compound 0.00949 µM) | IC50 (second compound 0.03 µM) | IC50 (second compound 0.0949 µM) | IC50 (second compound 0.3 µM)
239 nM: IC50 (second compound 0.000949 µM)
active: viability, T/C [13] 4.88% | viability, T/C [14] 6.46% | viability, T/C [15] 7.99% | viability, T/C [16] 9.02% | viability, T/C [17] 8.75% | viability, T/C [18] 4.7% | viability, T/C [19] 2.99% | viability, T/C [20] 2.96% | viability, T/C [21] 3.21% | viability, T/C [22] 3.04% | viability, T/C [23] 3.2% | viability, T/C [24] 1.24% | viability, T/C [25] 2.41% | viability, T/C [26] 2.7% | viability, T/C [27] 2.57% | viability, T/C [28] 3.02% | viability, T/C [29] 2.41% | viability, T/C [30] 0.82% | viability, T/C [31] 1.98% | viability, T/C [32] 2.13% | viability, T/C [33] 2.07% | viability, T/C [34] 1.97% | viability, T/C [35] 2.39% | viability, T/C [36] 0.63%

CCC(CC)c1cc(NC2CCC(N)C2)n2nccc2n1 (centres undefined) + CCn1c(-c2cc(N3CCN(C)CC3)cnc2C(C)OC)c2c3cc(ccc31)-c1csc(n1)CC(NC(=O)C1CC1C)C(=O)N1CCCC(N1)C(=O)OCC(C)(C)C2
active: viability, T/C [5] 0.22% | viability, T/C [6] 0.15% | viability, T/C [11] 0.58% | viability, T/C [12] 0.66% | viability, T/C [13] 3.22% | viability, T/C [14] 4.26% | viability, T/C [15] 3.48% | viability, T/C [16] 4.75% | viability, T/C [17] 0.1% | viability, T/C [18] 0.59% | viability, T/C [19] 3.14% | viability, T/C [20] 3.12% | viability, T/C [21] 3.99% | viability, T/C [22] 2.67% | viability, T/C [23] 0.09% | viability, T/C [24] 0.83% | viability, T/C [25] 2.55% | viability, T/C [26] 2.58% | viability, T/C [27] 2.46% | viability, T/C [28] 1.27% | viability, T/C [29] 0.74% | viability, T/C [30] 0.84% | viability, T/C [31] 2.43% | viability, T/C [32] 3.04% | viability, T/C [33] 2.55% | viability, T/C [34] 1.37% | viability, T/C [35] 0.48% | viability, T/C [36] 0.89%
1070 nM: IC50 (second compound 0.000949 µM)
< 31.6 nM: IC50 (second compound 0.003 µM) | IC50 (second compound 0.00949 µM) | IC50 (second compound 0.03 µM) | IC50 (second compound 0.0949 µM) | IC50 (second compound 0.3 µM)
inactive: viability, T/C [1] 69.1% | viability, T/C [2] 73.5% | viability, T/C [3] 64.5% | viability, T/C [4] 53.2% | viability, T/C [7] 28.8% | viability, T/C [8] 28.2% | viability, T/C [9] 26.5% | viability, T/C [10] 16.3%
